The nature of data set [1]: Self-assembly on drying onto a surface. Type of data set: physicochemical. Conditions: dissolved at neutral / physiological pH (pH 8), dried, negative stain TEM. The source says: Such a facile approach allows this novel material to be formed in a pH independent manner, as may be important in applications that are particularly sensitive to changes in pH, including the delivery of cells in conjunction with the gelling system and generally avoiding contact between tissues and materials at non-physiological pH.
Illustrating another gelation factor of this invention, self-assembly can occur by simply taking a PA (such as PA 17, Table 2) or a combination of PAs dissolved in water at pH 8 and placing it on a surface which is allowed to dry (for example, directly on a carbon coated TEM grid). […] (See, FIG. 11.)

Data set [2] in a line: TEM of self-assembled nanofibers (fiber formation and diameter). It counts as physicochemical. How it is done: After synthesis (see, example 10), the PA of FIG. 1 (characterized by ^1H NMR and matrix-assisted laser desorption/ionization time-of-flight mass spectrometry (MALDI-TOF MS): matrix ion [M−H]^−1=1333) was treated with dithiothreitol (DTT) at a pH of 8 to reduce all cysteine residues to free thiols. […] However, upon acidification of the solution below pH 4 the material rapidly becomes insoluble. Solutions more concentrated than 2.5 mg/ml form birefringent gels in water that are self-supporting upon inversion of the container. […] Negatives were digitized in the Umax PowerLook scanner with resolution 1200 dpi. The average thickness of the PA fibers was determined by two different procedures. First the Fourier transform of the images and following measurements of the distances between the peaks were performed in the NIH Image […] program. The second approach applied was averaging technique based on the cross-correlation method, widely used in single particle reconstruction using the EMAN […] program. For each data set 1200-1300 individual boxes were selected. […]
Samples of the peptide-amphiphiles were prepared for TEM analysis in two different ways. In some cases a small sample of the gel, prepared in bulk as described above, was smeared onto a holey carbon coated TEM grid (Quantifoil). […]

Data set [3] is described as follows: Mineralization of PA nanofibers with CaCl2 and Na2HPO4 on TEM grid. Conditions: 30 minutes of incubation with calcium and phosphate. How it is done: To investigate the mineralization properties of PA nanofibers of this invention, the material was assembled and mineralized directly on a holey carbon coated TEM grid—to allow study of the dynamics of the mineralization process while minimizing artifacts of TEM sample preparation. To prepare samples, a drop of aqueous PA (1 mg/ml) was mounted on the holey grid and the self-assembly of the PA was induced in an atmosphere of HCl vapor. The grids were immersed in aqueous iodine to oxidize the cysteine thiol groups to disulfides. After rinsing with distilled water, the PA coated grids were treated with 5 μl of 10 mM CaCl2 on one side and 5 μl of 5 mM Na2HPO4 on the other side. The two solutions are able to mix only by passing through the holes in the carbon support.
In a second control, a PA was prepared in which phosphoserine was replaced by serine and treated as above with calcium and phosphate.

Data set [4] can be described thus: Solubility, pH-dependent precipitation and gelation in water. Type of data set: physicochemical. How it is done: After synthesis (see, example 10), the PA of FIG. 1 (characterized by ^1H NMR and matrix-assisted laser desorption/ionization time-of-flight mass spectrometry (MALDI-TOF MS): matrix ion [M−H]^−1=1333) was treated with dithiothreitol (DTT) at a pH of 8 to reduce all cysteine residues to free thiols. […] However, upon acidification of the solution below pH 4 the material rapidly becomes insoluble. Solutions more concentrated than 2.5 mg/ml form birefringent gels in water that are self-supporting upon inversion of the container. […] Negatives were digitized in the Umax PowerLook scanner with resolution 1200 dpi. The average thickness of the PA fibers was determined by two different procedures. First the Fourier transform of the images and following measurements of the distances between the peaks were performed in the NIH Image […] program. The second approach applied was averaging technique based on the cross-correlation method, widely used in single particle reconstruction using the EMAN […] program. For each data set 1200-1300 individual boxes were selected.
Several PAs with basic amino acids that can self-assemble at alkaline pH and also mixed systems, in which oppositely charged PAs self-assemble at neutral pH, were prepared. For this purpose PA compounds 22-25 were prepared by standard solid phase peptide synthesis followed by alkylation with the C16 fatty acid, palmitic acid. See Table 2, FIG. 10b (PA 22) and FIGS. 10c-e (PAs 23-25). The peptides thus prepared were characterized by electrospray mass spectroscopy and found to correspond to their respective expected masses.
Solutions of each compound of example 6 were prepared at a concentration of 0.1 mg/m1 at neutral pH.

Non-standard residues stand in square brackets, D forms with d. Residues, ends and D or L forms follow the SMILES beside them. *: point of attachment. C16 alkyl = N-terminal C16 alkyl tail, CCCCCCCCCCCCCCCC*; Palmitoyl = CCCCCCCCCCCCCCCC(=O)*; pS = N[C@@H](COP(=O)(O)O)C(=O)O

The values that follow come from patent US8063014B2, “Self-assembly of peptide-amphiphile nanofibers under physiological conditions” (Northwestern University, priority 2002, dated 2011).

In the case of “17 ({C16 alkyl}-CCCCGGG[pS]RGD-OH; cysteine pairing not given here) [compound 17]”, the “self-assembly on drying from solution onto a surface” value in data set [1] is recorded as “formation of nanofibers”.
As for `CCCCCCCCCCCCCCCC(=O)N[C@@H](CS)C(=O)N[C@@H](CS)C(=O)N[C@@H](CS)C(=O)N[C@@H](CS)C(=O)NCC(=O)NCC(=O)NCC(=O)N[C@@H](COP(=O)(O)O)C(=O)N[C@@H](CCCNC(=N)N)C(=O)NCC(=O)N[C@@H](CC(=O)O)C(=O)O` [PA 26, Alkyl*-C4G3S^(P)RGD-COOH] (Palmitoyl-CCCCGGG[pS]RGD-OH), the “fiber diameter, positively and negatively stained dried fibers” value in data set [2] (TEM, dried) worked out at 6.0±1 nm. Further, the “fiber diameter, cryo-TEM” value in data set [2] (native hydrated gel) came out at 7.6±1 nm. Besides, the “mineral observed on the fibers by TEM” value in data set [3] was “heavy crystallization”. Also, the “pH below which the material rapidly becomes insoluble on acidification” value in data set [4] (acidification of the aqueous solution) is on record as below 4 pH. For the same compound, in data set [4] (after acidification), the “concentration above which solutions form self-supporting birefringent gels in water” value is above 2500 µg/mL. Also, the solubility in water in data set [4] (pH of 8, DTT-reduced) was above 50 mg/mL.
